Test results taken from patent US9951014B2, “Mammalian and bacterial nitric oxide synthase inhibitors” (Northwestern University, priority 2014, dated 2018).
Like-named read-outs stand apart in the source and are kept apart here.

Columns and labels:
[1] = target: T1, bsNOS (Bacillus subtilis (strain 168), UniProt O34453); assay: Imidazole displacement, spectral binding constant KS
[2] = target: bovine eNOS (Bos taurus (Bovine), UniProt P29473); assay: Oxyhemoglobin NO capture assay with purified NOS; assay type: biochemical; conditions: for e/n selectivity: ratio Ki eNOS / Ki rat nNOS
Protocol: (§1) The oxyhemoglobin NO assays were performed with purified NOSs using a Biotek Gen5™ microplate reader as previously reported. […] For iNOS, calmodulin and CaCl2 were omitted because iNOS is calcium independent. […] The calculated standard deviations of the assays were less than 10% with all NOSs. […] The selectivity of antagonism of nNOS was determined by calculating the ratios of the Ki values with iNOS or eNOS to those with rat nNOS.

[3] = tested on: S. aureus UAMS1182 (MRSA); assay: Effect of H2O2 and NOS inhibitors on S. aureus viability (CFU); assay type: cell-based, Staphylococcus aureus; conditions: for effect of co-treatment with H2O2 on killing of S. aureus: 200 μM inhibitor + 5 mM H2O2; for S. aureus survival, inhibitor alone: 200 μM inhibitor, WT and Δnos strains
[4] = target: murine iNOS (Mus musculus (Mouse), UniProt P29477); assay: Oxyhemoglobin NO capture assay with purified NOS; assay type: biochemical; conditions: for i/n selectivity: ratio Ki iNOS / Ki rat nNOS
Protocol: as §1

[5] = target: rat nNOS (Rattus norvegicus (Rat), UniProt P29476); assay: Oxyhemoglobin NO capture assay with purified NOS; assay type: biochemical
Protocol: as §1

[6] = tested on: B. subtilis; assay: Effect of oxidative/antimicrobial stress and NOS inhibitors on B. subtilis survival (CFU); assay type: cell-based, Bacillus subtilis
[7] = target: human nNOS (Homo sapiens (Human), UniProt P29475); assay: Oxyhemoglobin NO capture assay with purified NOS; assay type: biochemical; conditions: Table 9; read-out: Ki H nNOS
Protocol: as §1

[8] = target: nNOS (Rattus norvegicus (Rat), UniProt P29476); conditions: literature data (footnote b); read-out: KS nNOS; cited from earlier work
[9] = target: T1, bsNOS; conditions: cited from earlier work
[10] = target: eNOS (Bos taurus (Bovine), UniProt P29473); conditions: literature data (footnotes a, c); read-out: KS eNOS; cited from earlier work
[11] = WT − KS, wild-type bsNOS, Table 8
[12] = wt B. subtilis, L-NNA, 1 at 500 μM, 2 at 250 μM

T1 sequence (O34453 whole entry): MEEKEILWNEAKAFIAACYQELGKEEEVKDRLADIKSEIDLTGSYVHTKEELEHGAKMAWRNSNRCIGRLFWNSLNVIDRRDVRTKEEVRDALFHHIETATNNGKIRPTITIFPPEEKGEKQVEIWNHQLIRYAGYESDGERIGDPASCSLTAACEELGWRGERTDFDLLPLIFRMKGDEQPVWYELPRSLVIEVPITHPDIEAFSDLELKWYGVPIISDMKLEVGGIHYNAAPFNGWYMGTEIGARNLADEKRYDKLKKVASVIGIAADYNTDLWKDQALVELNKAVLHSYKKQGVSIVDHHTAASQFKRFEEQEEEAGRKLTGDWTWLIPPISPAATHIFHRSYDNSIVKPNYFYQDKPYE

Molecule | Ki ([2]; Table 9, read-out: Ki eNOS) | e/n selectivity ([2]; Table 9) | Ki [7] | Ki ([4]; Table 9, read-out: Ki iNOS) | i/n selectivity ([4]; Table 9) | Ki ([5]; Table 9, read-out: Ki Rat nNOS) | further results
Cc1cc(N)nc(-c2ccc(CNCCc3cccc(F)c3)cc2)c1 [Compound 27, 6-(4-(((3-Fluorophenethyl)amino)methyl)phenyl)-4-methylpyridin-2-amine] | – | – | – | – | – | – | Kd ([1]; KS (bsNOS), Table 5): 8900 ± 2000 nM; Kd [1, 11]: 8800 ± 2000 nM; Ki [2]: 2870 nM; effect of co-treatment with H2O2 on killing of S. aureus [3]: significantly increases the H2O2-mediated killing; S. aureus survival, inhibitor alone [3]: reduced bacterial survival over time; Ki [4]: 6440 nM; Ki [5]: 525 nM
N=C(NCCC[C@H](N)C(=O)O)N[N+](=O)[O-] [L-NNA, N^ω-nitro-L-arginine, reference compound] | – | – | – | – | – | – | effect on bacterial % survival in the presence of ACR [6, 12]: bacterial % survival decreased; effect on bacterial % survival in the presence of H2O2 [6, 12]: trivial effects on bacterial survival
Nc1ccc2ccc(CCNCCCc3cccc(F)c3)cc2n1 [Compound 19] | – | – | – | – | – | – | Kd ([1]; KS (bsNOS), Table 5): 3600 ± 800 nM; Kd [1, 11]: 3600 ± 800 nM; effect of co-treatment with H2O2 on killing of S. aureus [3]: significantly increases the H2O2-mediated killing; S. aureus survival, inhibitor alone [3]: reduced bacterial survival over time
Cc1cc(N)nc(CCc2cccc(NCCN(C)C)c2)c1 [Compound 10b, N^1-(3-(2-(6-Amino-4-methylpyridin-2-yl)ethyl)phenyl)-N^2,N^2-dimethylethane-1,2-diamine] | 23700 nM | 125 | 111 ± 9 nM | 5430 nM | 29 | 190 ± 12 nM | –
N=C(N)NCCC[C@H](N)C(=O)O [L-Arg, L-arginine] | – | – | – | – | – | – | Kd [8]: 720 nM; Kd ([9]; read-out: WT − KS, wild-type bsNOS, referenced value (25)): 4800 nM; Kd ([1]; KS bsNOS, imidazole displacement, Tables 1 and 4): 760 nM; Kd [10]: 1000 nM
NC(=NCCC[C@H](N)C(=O)O)NO [NOHA, N-omega-hydroxy-L-arginine, reference compound] | – | – | – | – | – | – | Kd ([9]; absence of H4B, referenced values (8), (9), read-out: KS bsNOS (−H4B)): 3200 nM; fold difference in KS binding to bsNOS in presence vs absence of H4B ([1]; 50 μM H4B): 1.2 fold; Kd ([1]; presence of 50 μM H4B, read-out: KS bsNOS (+H4B)): 1900 ± 100 nM
Cc1cc(N)nc(CCc2cccc(N(C)CCN)c2)c1 [Compound 10c, N^1-(3-(2-(6-Amino-4-methylpyridin-2-yl)ethyl)phenyl)-N^1-methylethane-1,2-diamine] | 10700 nM | 172 | 56 ± 2 nM | 2900 nM | 47 | 62 ± 4.1 nM | –
CNCCN(C)c1cccc(CCc2cc(C)cc(N)n2)c1 [Compound 10a, N^1-(3-(2-(6-Amino-4-methylpyridin-2-yl)ethyl)phenyl)-N^1,N^2-dimethylethane-1,2-diamine] | 20200 nM | 156 | 98 ± 5 nM | 5340 nM | 41 | 130 ± 10 nM | –
acriflavine | – | – | – | – | – | – | bacterial growth, % of control ([6]; B. subtilis, agent alone (800 μM ACR or 500 μM NOS inhibitor)): 23 % of control
CNCCN(C)c1cncc(CCc2cc(C)cc(N)n2)c1 [Compound 14b, N^1-(5-(2-(6-Amino-4-methylpyridin-2-yl)ethyl)pyridin-3-yl)-N^1,N^2-dimethylethane-1,2-diamine] | 12900 nM | – | 59 ± 3.2 nM | – | – | – | –
Cc1cc(N)nc(CCc2cccc(N(C)CCCN)c2)c1 [Compound 10d, N^1-(3-(2-(6-Amino-4-methylpyridin-2-yl)ethyl)phenyl)-N^1-methylpropane-1,3-diamine] | 10700 nM | 25 | 109 ± 3 nM | 4640 nM | 11 | 430 ± 22 nM | –
CNCCN(C)c1cc(F)cc(CCc2cc(C)cc(N)n2)c1 [Compound 19b, N^1-(3-(2-(6-Amino-4-methylpyridin-2-yl)ethyl)-5-fluorophenyl)-N^1,N^2-dimethylethane-1,2-diamine] | 30200 nM | – | 105 ± 8.1 nM | 5560 nM | – | 34 ± 1.2 nM | –
CNCCN(C)c1cc(CCc2cc(C)cc(N)n2)cc(C(F)(F)F)c1 [Compound 19a, N^1-(3-(2-(6-Amino-4-methylpyridin-2-yl)ethyl)-5-(trifluoromethyl)phenyl)-N^1,N^2-dimethylethane-1,2-diamine] | 15900 nM | 238 | 189 ± 16 nM | 8130 nM | 122 | 67 ± 3.3 nM | –
